This note sets out measurements from ChEMBL document CHEMBL4364307, “2-(phenylthio)ethylidene derivatives as anti-Trypanosoma cruzi compounds: Structural design, synthesis and antiparasitic activity” (Eur J Med Chem, 2019).

The test system of data set [1] is Trypanosoma cruzi. The data set can be described thus: Induction of apoptosis in bloodstream form of Trypanosoma cruzi trypomastigotes at 1.1 mM after 24 hrs by annexin V-FITC/propidium iodide staining based flow cytometry relative to control. The class given is functional, organism-based. (In general: A flow cytometer gives signals particle by particle.)
In data set [2] the test system is Trypanosoma cruzi. The data set can be described thus: Induction of apoptosis in bloodstream form of Trypanosoma cruzi trypomastigotes at 0.25 mM after 24 hrs by annexin V-FITC/propidium iodide staining based flow cytometry relative to control. The class given is functional, organism-based.
The target of data set [3] is Cruzipain (Trypanosoma cruzi) (UniProt P25779). The data set can be described thus: Inhibition of Trypanosoma cruzi cruzain at 100 uM using Z-FR-AMC as substrate preincubated for 10 mins followed by substrate addition and measured for 5 mins by fluorimetric analysis relative to control.
Chain of Cruzipain (Trypanosoma cruzi) (P25779 123-467 limits assumed): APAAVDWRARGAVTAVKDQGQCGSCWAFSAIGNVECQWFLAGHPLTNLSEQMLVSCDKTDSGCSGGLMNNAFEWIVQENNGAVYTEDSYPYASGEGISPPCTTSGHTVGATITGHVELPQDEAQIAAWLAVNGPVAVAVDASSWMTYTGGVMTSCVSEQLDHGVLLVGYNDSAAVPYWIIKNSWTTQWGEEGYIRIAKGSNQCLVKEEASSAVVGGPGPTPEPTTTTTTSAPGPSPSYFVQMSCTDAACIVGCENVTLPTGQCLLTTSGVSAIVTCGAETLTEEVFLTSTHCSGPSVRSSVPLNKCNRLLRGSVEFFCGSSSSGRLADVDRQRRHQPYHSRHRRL
Data set [4] deals with Trypanosoma cruzi. Put plainly: Antiparasitic activity against bloodstream form of Trypanosoma cruzi Y strain trypomastigotes infected in Balb/c mouse peritoneal macrophage incubated for 6 hrs followed by replacement of fresh medium measured after 3 days by Giemsa-staining based optical microscopic analysis. It counts as functional, organism-based.
The subject of data set [5] is Trypanosoma cruzi. The data set can be described thus: Antiparasitic activity against bloodstream form of Trypanosoma cruzi Y strain trypomastigotes infected in Balb/c mouse peritoneal macrophage assessed as reduction in number of amastigotes/100 macrophages at 20 uM incubated for 6 hrs followed by replacement of fresh medium measured after 3 days by Giemsa-staining based optical microscopic analysis. It counts as functional, organism-based.

Data set [6] concerns Trypanosoma cruzi. The data set can be described thus: Antiparasitic activity against bloodstream form of Trypanosoma cruzi Y strain trypomastigotes infected in Balb/c mouse peritoneal macrophage assessed as reduction in percent of infected macrophages at 20 uM incubated for 6 hrs followed by replacement of fresh medium measured after 3 days by Giemsa-staining based optical microscopic analysis. It counts as functional, organism-based.

A short description of data set [7]: Cytotoxicity against Balb/c mouse splenocyte assessed as reduction in cell viability after 24 hrs by [3H]thymidine incorporation based beta scintillation counting analysis. The conditions noted are these: mouse splenocytes.
Data set [8] relates to Trypanosoma cruzi. The data set can be described thus: Antitrypanosomal activity against bloodstream form of Trypanosoma cruzi trypomastigotes after 24 hrs by Neubauer chamber method. The class given is functional, organism-based.
For data set [9], the system named is Trypanosoma cruzi. Put plainly: Antitrypanosomal activity against Trypanosoma cruzi Dm28c epimastigotes after 5 days by Neubauer chamber method. It counts as functional, organism-based. The conditions noted are these: 120 h.
A short description of data set [10]: Selectivity index, ratio of maximum non-toxic concentration for Balb/c mouse splenocyte to IC50 for bloodstream form of Trypanosoma cruzi trypomastigotes. The class given is toxicity. The conditions noted are these: mouse splenocytes, read-out: Selectivity Index.
Data set [11] has as its system Trypanosoma cruzi. The data set can be described thus: Antiparasitic activity against bloodstream form of Trypanosoma cruzi Y strain trypomastigotes infected in Balb/c mouse peritoneal macrophage at 20 uM incubated for 2 hrs followed by extracellular parasites wash out and measured after 2 hrs by Giemsa staining-based optical microscopic analysis.
Data set [12] relates to Trypanosoma cruzi. The data set can be described thus: Antitrypanosomal activity against Trypanosoma cruzi Y strain epimastigotes after 15 hrs by hemocytometer based cell counting method. It counts as functional, organism-based.
The target of data set [13] is Cruzipain (Trypanosoma cruzi, UniProt P25779). The data set can be described thus: Inhibition of Trypanosoma cruzi cruzain using Z-FR-AMC as substrate preincubated for 10 mins followed by substrate addition and measured for 5 mins by fluorimetric analysis.
Chain of Cruzipain (P25779 whole entry): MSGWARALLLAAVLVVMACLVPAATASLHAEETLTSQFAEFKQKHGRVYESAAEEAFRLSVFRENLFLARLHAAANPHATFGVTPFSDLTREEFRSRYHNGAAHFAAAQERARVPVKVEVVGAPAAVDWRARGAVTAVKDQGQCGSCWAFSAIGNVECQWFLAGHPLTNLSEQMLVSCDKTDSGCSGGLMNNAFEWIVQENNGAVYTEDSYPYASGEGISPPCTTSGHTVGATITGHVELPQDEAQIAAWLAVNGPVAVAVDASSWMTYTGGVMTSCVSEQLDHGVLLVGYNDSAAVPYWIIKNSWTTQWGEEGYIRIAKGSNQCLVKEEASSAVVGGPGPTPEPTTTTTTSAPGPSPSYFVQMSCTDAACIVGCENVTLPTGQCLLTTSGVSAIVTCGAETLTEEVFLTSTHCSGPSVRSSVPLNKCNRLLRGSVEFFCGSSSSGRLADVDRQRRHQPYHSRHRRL
Data set [14] deals with Trypanosoma cruzi. The data set can be described thus: Induction of morphological changes in Trypanosoma cruzi bloodstream trypomastigotes assessed as appearance of atypical vacuoles in cytoplasm at 3 uM after 24 hrs by TEM analysis. The class given is functional, organism-based.
Data set [15] deals with Trypanosoma cruzi. Put plainly: Induction of morphological changes in Trypanosoma cruzi bloodstream trypomastigotes assessed as disorganization of golgi complex at 3 uM after 24 hrs by TEM analysis. The class given is functional, organism-based.
Data set [16] deals with Trypanosoma cruzi. The data set can be described thus: Induction of morphological changes in Trypanosoma cruzi bloodstream trypomastigotes assessed as appearance of myelin figures in mitochondria at 3 uM after 24 hrs by TEM analysis. The class given is functional, organism-based.
For data set [17], the system named is Trypanosoma cruzi. Put plainly: Induction of morphological changes in Trypanosoma cruzi bloodstream trypomastigotes assessed as appearance myelin figures in cytoplasm at 3 uM after 24 hrs by TEM analysis. It counts as functional, organism-based.

pIC50: −log10 of the molar value. Activity calls are given as the source filed them. The calls are words filed in the database; no cut-off is given here.

Turning to `Clc1ccc(-c2csc(N/N=C/CSc3ccccc3)n2)cc1`, the outcome in data set [1], in data set [2], in data set [5] and in data set [6] was Active. Moreover, the inhibition (as a rule, how much of the control response was suppressed) in [3] amounted to 17.6%. Further, the pIC50 (as a rule, −log10 of the IC50, conventionally taken in molar units) in data set [4] is 5.10; in [8] it was 5.39; in [9], 5.17. Moreover, in [7], the MNTC at 24 h is over 278 µM. Moreover, in data set [10], the selectivity ratio was over 67.8. The inhibition entry in data set [11] was “Active”.
Take `Fc1ccc(-c2csc(N/N=C/CSc3ccccc3)n2)cc1`: the inhibition in [3] came to 22.9%. For the same molecule, the MNTC at 24 h in [7] is over 291 µM. Besides, in [8], the pIC50 is 4.38. Moreover, in [10], the selectivity ratio is over 7.
As to `NC(=S)N/N=C/CSc1ccc(F)cc1`, the inhibition in data set [3] worked out at 27.5%. Besides, in data set [7], the MNTC at 24 h turned out to be 20.5 µM. The pIC50 in data set [8] is 5.24; in data set [9], 5.21. Besides, the selectivity ratio in [10] was 3.6.
The matching figures for `NC(=S)N/N=C/CSc1cc(Cl)ccc1Cl`: 37.4%, 85 µM, 5.09, 5.21 and 10.4.
Turning to `O=[N+]([O-])c1ccc(-c2csc(N/N=C/CSc3ccccc3)n2)cc1`, the inhibition in [3] came out at 18.9%. The results for the pIC50 in data set [4], in data set [8] and in data set [9] were 4.72, 5.08 and 4.80, respectively. In addition, the outcome in [5] and in data set [6] was Active. Besides, the MNTC at 24 h in [7] was determined as 67.5 µM. Further, the selectivity ratio in [10] is 8.
In [12], `CC(C)C1S/C(=N/N=C/CSc2ccccc2)NC1=O` (stereo not drawn) showed a negative-log IC50 (pIC50) of 6.52.
`NC(=S)N/N=C/CSc1ccccc1` showed an inhibition in data set [3] of 42.1%. Further, the pIC50 is 4.05 in [8] and 3.99 in [9]. The selectivity ratio in [10] came to 0.25.
Regarding `NC(=S)N/N=C/CSc1ccc(Cl)cc1`, the inhibition in [3] stood at 25.2%. For the same molecule, the MNTC at 24 h in [7] is under 3.8 µM. Moreover, the figures for the pIC50 in data set [8] and in data set [9] were 4.85 and 5.21, respectively. Moreover, the selectivity ratio in data set [10] amounted to 0.3.
For the molecule `NC(=S)N/N=C/CSc1cccc(Cl)c1`, the values for the negative logarithm of the IC50 (pIC50) in data set [13], in [8] and in data set [9] were 4.72, 4.85 and 5.26, respectively. Besides, the inhibition in data set [3] came out at 75.9%. In addition, the MNTC at 24 h in [7] worked out at 96.2 µM. In data set [10], the selectivity ratio turned out to be 6.8.
In the case of `C/C(COc1ccccc1)=N\Nc1nc(-c2cccc([N+](=O)[O-])c2)cs1`, the values for the pIC50 in data set [8] and in data set [9] were 5.42 and 5.40, respectively.
`NC(=S)N/N=C/CSc1ccccc1Cl` gave an inhibition in data set [3] of 46%. Besides, in data set [7], the MNTC at 24 h is under 3.8 µM. Also, the pIC50 was 5.21 in data set [8] and 4.32 in data set [9]. Moreover, the selectivity ratio in data set [10] came out at 0.6.
With `Cc1cccc(SC/C=N/NC(N)=S)c1`, the result in data set [1] and in data set [2] was Active. In data set [3], this molecule showed an inhibition of 43.4%. In addition, the MNTC at 24 h in data set [7] was under 4.2 µM. Moreover, the pIC50 was 5.74 in data set [8] and 5.20 in data set [9]. Also, the selectivity ratio in [10] came out at 2.3.
With `Cc1ccc(C)c(SC/C=N/NC(N)=S)c1`, the outcome in data set [1] and in [2] was Active. Moreover, the figures for the pIC50 in data set [13], in data set [8] and in data set [9] were 5.48, 5.23 and 5.21, respectively. Moreover, the inhibition in data set [3] is 87.6%. In data set [7], the MNTC at 24 h was under 3.9 µM. In addition, the selectivity ratio in [10] amounted to 0.7.
Regarding `COc1ccc(SC/C=N/NC(N)=S)cc1`, the inhibition in data set [3] was determined as 34.6%. In addition, the MNTC at 24 h in data set [7] is under 3.9 µM. Besides, the pIC50 in data set [8] is 4.40; in data set [9], 4.49. Further, the selectivity ratio in data set [10] stood at 0.1.
For the molecule `Cc1ccccc1SC/C=N/NC(N)=S`, the inhibition in [3] turned out to be 13.9%. The MNTC at 24 h in data set [7] turned out to be 41.8 µM. The pIC50 in data set [8] was 5.21; in data set [9], 4.82. Moreover, the selectivity ratio in data set [10] stood at 6.9.
On to `COc1ccc(-c2csc(N/N=C/CSc3ccccc3)n2)cc1`, for which, in data set [7], the MNTC at 24 h is over 281 µM. Also, the pIC50 in [8] was 4.73; in [9], 4.20. Moreover, the selectivity ratio in data set [10] was over 15.2.
In data set [9], `C/C(COc1ccccc1)=N\Nc1nc(-c2ccc(Br)cc2)cs1` gave a pIC50 of 4.30.
In data set [3], `Cc1ccc(SC/C=N/NC(N)=S)cc1` registered an inhibition of 31.4%. Besides, the MNTC at 24 h in [7] came to 4.2 µM. For the same molecule, the pIC50 in data set [9] is 5.02.
As for `Cc1sc(N/N=C/CSc2ccccc2)nc1-c1ccc(Br)cc1`, the outcome in data set [14], in data set [15], in [1], in data set [2], in [5] and in data set [6] was Active. The outcome in [16] and in data set [17] was Active. The molecule further registered an inhibition in data set [3] of 27%. The pIC50 in [4] was 4.99; in [8], 5.59; in data set [9] it was 5.39. Besides, in data set [7], the MNTC at 24 h was over 247 µM. For the same molecule, in data set [10], the selectivity ratio was over 95.1. In data set [11], the inhibition result is “Active”.
Turning to `C(/CSc1ccccc1)=N\Nc1nc(-c2ccccc2)cs1`, the result in data set [1] and in [2] was Active. Further, the MNTC at 24 h in data set [7] worked out at 154 µM. Also, the values for the negative logarithm of the IC50 (pIC50) in data set [8] and in [9] were 5.28 and 4.23, respectively. Besides, the selectivity ratio in data set [10] stood at 29.5.
For `Clc1ccc(-c2csc(N/N=C/CSc3ccccc3)n2)c(Cl)c1`, the outcome in data set [1] and in data set [2] was Active. Further, the inhibition in data set [3] was 67.2%. In [7], the MNTC at 24 h worked out at 127 µM. Besides, the values for the pIC50 in [8] and in [9] were 5.39 and 5.10, respectively. Further, in [10], the selectivity ratio was 30.9.
`Brc1ccc(-c2csc(N/N=C/CSc3ccccc3)n2)cc1`: the inhibition in data set [3] turned out to be 7%. For the same molecule, the MNTC at 24 h in data set [7] is over 239 µM. Also, the pIC50 in data set [8] is 4.84; in data set [9], 5.27. For the same molecule, the selectivity ratio in data set [10] is over 16.7.
`NC(=S)N/N=C/CSc1ccc(Br)cc1`: the outcome in [1] and in data set [2] was Active. In [3], this molecule registered an inhibition of 16.6%. Further, the MNTC at 24 h in data set [7] was under 3.3 µM. The pIC50 was 5.18 in data set [8] and 4.81 in data set [9]. Moreover, the selectivity ratio in data set [10] was 0.5.
With `Cc1ccc(-c2csc(N/N=C/CSc3ccccc3)n2)cc1`, the result in [1], in data set [2], in [5] and in data set [6] was Active. In data set [3], the inhibition amounted to 11.9%. Also, the pIC50 in [4] was 4.73; in [8], 5.24; in data set [9] it was 5.03. Further, the MNTC at 24 h in data set [7] was determined as 147 µM. Moreover, the selectivity ratio in [10] was 25.8.
With `Clc1ccc(-c2csc(N/N=C/CSc3ccccc3)n2)cc1Cl`, the inhibition in data set [3] stood at 62.9%. Further, the MNTC at 24 h in [7] worked out at 127 µM. Moreover, the figures for the pIC50 in [8] and in data set [9] were 4.82 and 4.25, respectively. Moreover, the selectivity ratio in data set [10] came to 8.3.
For the molecule `C/C(COc1ccccc1)=N\Nc1nc(-c2ccncc2)cs1`, the figures for the pIC50 in [8] and in data set [9] were 5.41 and 5.40, respectively.
For the molecule `O=[N+]([O-])c1cccc(-c2csc(N/N=C/CSc3ccccc3)n2)c1`, in data set [3], the inhibition came out at 16.2%. In addition, in data set [7], the MNTC at 24 h is 135 µM. For the same molecule, the pIC50 is 4.72 in data set [8] and 5.08 in data set [9]. For the same molecule, the selectivity ratio in [10] came to 7.
`O=C(Cn1ccnc1[N+](=O)[O-])NCc1ccccc1` [BENZNIDAZOLE] gave a pIC50 in [8] of 5.21. In addition, in data set [10], the selectivity ratio came to 15.5.
